One experiment addresses T1, mouse T1R1+3 (Mus musculus, UniProt Q925D8+Q99PG6).
T1 construct: expressed in transfected cells; host or cells: HEK-293 (PEAKrapid) cells co-expressing promiscuous G proteins
T1 sequence (Q99PG6 20-842 L120P/N244D/D281A/N309Y/P311T/S314P/H418Y): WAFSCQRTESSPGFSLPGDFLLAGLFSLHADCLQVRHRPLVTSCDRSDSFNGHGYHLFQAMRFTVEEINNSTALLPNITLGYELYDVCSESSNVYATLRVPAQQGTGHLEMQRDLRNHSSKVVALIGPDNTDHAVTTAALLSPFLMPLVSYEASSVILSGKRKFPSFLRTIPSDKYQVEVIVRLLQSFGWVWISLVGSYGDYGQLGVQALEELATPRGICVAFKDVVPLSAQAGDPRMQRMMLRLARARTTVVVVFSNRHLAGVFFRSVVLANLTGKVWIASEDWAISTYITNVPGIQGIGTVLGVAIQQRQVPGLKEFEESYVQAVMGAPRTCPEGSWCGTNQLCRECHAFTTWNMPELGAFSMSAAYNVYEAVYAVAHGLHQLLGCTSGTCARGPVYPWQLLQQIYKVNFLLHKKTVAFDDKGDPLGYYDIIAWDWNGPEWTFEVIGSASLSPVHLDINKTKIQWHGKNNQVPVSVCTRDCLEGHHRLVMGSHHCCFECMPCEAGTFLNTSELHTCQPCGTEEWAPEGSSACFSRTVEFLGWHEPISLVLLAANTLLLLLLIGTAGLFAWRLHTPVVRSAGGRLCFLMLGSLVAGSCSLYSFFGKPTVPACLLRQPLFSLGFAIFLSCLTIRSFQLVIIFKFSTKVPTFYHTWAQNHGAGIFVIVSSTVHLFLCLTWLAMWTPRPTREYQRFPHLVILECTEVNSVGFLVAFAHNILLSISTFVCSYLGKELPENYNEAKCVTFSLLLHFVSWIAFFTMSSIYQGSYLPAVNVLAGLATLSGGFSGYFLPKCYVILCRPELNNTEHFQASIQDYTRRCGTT
T1 sequence (Q925D8 21-858): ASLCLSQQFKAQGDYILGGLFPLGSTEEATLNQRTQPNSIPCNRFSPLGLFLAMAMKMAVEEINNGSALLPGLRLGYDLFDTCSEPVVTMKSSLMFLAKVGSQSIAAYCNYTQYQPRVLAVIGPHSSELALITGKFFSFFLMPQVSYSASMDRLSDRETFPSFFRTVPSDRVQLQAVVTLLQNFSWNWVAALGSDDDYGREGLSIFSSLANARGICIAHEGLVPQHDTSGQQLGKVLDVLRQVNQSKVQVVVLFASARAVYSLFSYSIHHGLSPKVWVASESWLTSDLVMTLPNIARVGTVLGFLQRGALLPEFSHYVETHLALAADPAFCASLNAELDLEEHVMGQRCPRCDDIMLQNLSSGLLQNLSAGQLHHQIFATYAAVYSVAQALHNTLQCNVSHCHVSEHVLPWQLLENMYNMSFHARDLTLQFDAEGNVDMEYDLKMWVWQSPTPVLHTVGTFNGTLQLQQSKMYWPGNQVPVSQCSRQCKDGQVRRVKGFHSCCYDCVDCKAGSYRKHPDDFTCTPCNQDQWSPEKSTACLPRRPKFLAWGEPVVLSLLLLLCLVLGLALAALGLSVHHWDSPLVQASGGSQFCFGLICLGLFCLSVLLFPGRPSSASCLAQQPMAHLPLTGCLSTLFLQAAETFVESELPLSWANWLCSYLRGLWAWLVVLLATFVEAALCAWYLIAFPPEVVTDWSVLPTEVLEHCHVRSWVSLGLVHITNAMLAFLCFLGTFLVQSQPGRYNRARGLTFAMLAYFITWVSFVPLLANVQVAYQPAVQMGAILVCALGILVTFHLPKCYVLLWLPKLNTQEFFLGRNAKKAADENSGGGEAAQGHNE
The experiment can be described thus: Calcium imaging of HEK-293 cells co-expressing promiscuous G proteins and mouse T1R1+3. In kind it is cell-based. The following applies: for activation of T1R1+3: amino acids 50 mM; for shift of T1R1+3 dose response in the presence of IMP: 2.5 mM IMP. The procedure:
(a): HEK-293 cells co-expressing promiscuous G proteins and heteromeric mouse T1R2+3 or T1R1+3 receptors were stimulated with L- and D-amino acids. […] (b)(c): Quantification of amino-acid responses for T1R2+3(b) and T1R1+3(c). […] Each column represents the mean±s.e.m. of at least ten independent determinations. […] All calcium measurements and quantifications were performed as described in the Methods and Nelson et al., Cell 106:381-390 (2001).
Mouse T1R1 and T1R3 were transfected alone or in combination and tested for stimulation by L-amino acids.
(§1) Cells were grown, maintained and transfected exactly as described earlier (Nelson et al., Cell, 106:381-390 (2001)). […] FURA-2 acetomethyl ester was used to measure intracellular calcium concentration ([Ca^2+]i), and assay conditions were identical to those previously described (Nelson et al., Cell, 106:381-390 (2001)). Responses were measured for 60 s and the fluorescence ratio at wavelengths of 340 and 380 nm (F340/F380) was used to measure [Ca^2+]i. For data analysis, response refers to the number of cells responding in a field of about 300 transfected cells. Cells were counted as responders if F340/F380 increased above 0.27 after addition of tastant. […] Dose-response functions were fitted using the logistical equation. Studies involving taster and non-taster alleles of T1R3 used constructs of complementary DNA coding for T1R3 from C57BL/6 and 129/Sv mice, respectively (Nelson et al., Cell, 106:381-390 (2001); Kitagawa et al., Biochem. Biophys. Res. Cummun., 283:236-242 (2001); Montmayeur et al., Nature Neurosci., 4:492-498 (2001); Max et al., Nature Genet., 28:58-63 (2001); Sainz et al., J. Neurochem., 77:896-903 (2001); Bachmanov et al., Chem. Senses, 26:925-933 (2001)).

For experiment [1], the target named is T2, receptors containing human T1R1 (UniProt Q7RTX1+Q925D8).
T2 sequence (Q7RTX1 21-841): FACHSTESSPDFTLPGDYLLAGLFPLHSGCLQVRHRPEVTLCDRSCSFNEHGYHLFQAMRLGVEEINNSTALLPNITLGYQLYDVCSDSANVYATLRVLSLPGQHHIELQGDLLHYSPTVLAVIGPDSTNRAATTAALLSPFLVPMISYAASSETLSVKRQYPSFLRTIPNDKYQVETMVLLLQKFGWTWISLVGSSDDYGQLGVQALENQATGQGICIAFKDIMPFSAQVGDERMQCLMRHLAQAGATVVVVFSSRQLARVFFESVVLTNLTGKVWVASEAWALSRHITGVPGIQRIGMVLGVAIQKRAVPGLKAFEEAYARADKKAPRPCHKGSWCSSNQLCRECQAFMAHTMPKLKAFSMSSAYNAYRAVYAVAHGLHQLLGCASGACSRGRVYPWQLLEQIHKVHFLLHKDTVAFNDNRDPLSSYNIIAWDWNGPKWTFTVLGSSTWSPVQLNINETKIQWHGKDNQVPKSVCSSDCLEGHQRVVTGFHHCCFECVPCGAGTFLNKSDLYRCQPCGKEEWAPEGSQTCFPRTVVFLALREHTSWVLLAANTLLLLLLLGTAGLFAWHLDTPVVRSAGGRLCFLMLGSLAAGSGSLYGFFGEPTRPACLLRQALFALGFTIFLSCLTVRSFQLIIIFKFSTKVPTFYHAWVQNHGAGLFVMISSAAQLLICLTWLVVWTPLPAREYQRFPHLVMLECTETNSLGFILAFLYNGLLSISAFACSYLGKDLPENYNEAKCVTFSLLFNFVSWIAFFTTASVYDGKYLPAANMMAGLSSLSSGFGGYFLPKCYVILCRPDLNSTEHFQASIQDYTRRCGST
T2 sequence (Q925D8 21-858): T1 sequence (Q925D8 21-858)
The procedure:
as §1

Experiment [2] in a line: Behavioral thresholds for detection of sweet tastants in vivo.

Regarding `N[C@@H](CCC(=O)O)C(=O)[O-].[Na+]` [MSG, monosodium L-glutamate], the “potentiation of T1R1+3 response to the tastant by purine nucleotides” value at mouse T1R1+3 is listed as “greatly potentiated”. Further, the “activation of receptors containing human T1R1” value in experiment [1] (low concentration, FIG. 11c) is given as “robustly activates”.

Turning to `NC(=O)CC[C@H](N)C(=O)O` [glutamine], the “activation of T1R1+3” value at mouse T1R1+3 is given as “activating”.

Take `N[C@@H](Cc1c[nH]c2ccccc12)C(=O)O` [Trp]: at mouse T1R1+3, the “activation of T1R1+3” value is “no responses”.

In the case of `CC1=CC(=O)[N-]S(=O)(=O)O1.[K+]` [acesulfame-K], the in vivo threshold in experiment [2] is given as ~0.5 mM.

With `O=C1NS(=O)(=O)c2ccccc21` [saccharin], in experiment [2], the in vivo threshold was ~0.5 mM.

On to `C[C@@H](O)[C@H](N)C(=O)O` [threonine], for which the “activation of T1R1+3” value at mouse T1R1+3 is “activating”.

Consider `OC[C@H]1O[C@@](CO)(O[C@H]2O[C@H](CO)[C@@H](O)[C@H](O)[C@H]2O)[C@@H](O)[C@@H]1O` [sucrose], for which, in experiment [2], the in vivo threshold was ~20 mM.

Take `N[C@@H](CO)C(=O)O` [Ser, serine]: at mouse T1R1+3, the “shift of T1R1+3 dose response in the presence of IMP” value (from here on “shift of T1R1+3 dose response”) was “at least one order of magnitude to the left” and the “activation of T1R1+3” value was “activating”.

For the compound `C[C@@H](N)C(=O)O` [D-Ala], at mouse T1R1+3 (amino acid 50 mM, IMP 2.5 mM), the “activation of T1R1+3 by D-amino acid in the presence of IMP” value is reported as “exception”.

As to `C[C@H](N)C(=O)O` [Ala, alanine], at mouse T1R1+3, the “shift of T1R1+3 dose response” value is listed as “at least one order of magnitude to the left” and the “activation of T1R1+3” value was “activating”.

As for `NCC(=O)O` [Gly, glycine], the results for the “activation of T1R1+3” value on mouse T1R1+3 and on mouse T1R1+3 (listed as glycine) were “activates” and “activating”, respectively.

Consider `N[C@@H](CCC(=O)O)C(=O)O` [Glu, glutamate], for which, on mouse T1R1+3, the “shift of T1R1+3 dose response” value was “at least one order of magnitude to the left”. Moreover, the “sensitivity of cells expressing human T1R1 relative to other amino acids” value in experiment [1] is “more than an order of magnitude more sensitive”.

Regarding `NC(CCP(=O)(O)O)C(=O)O` [L-AP4], the “potentiation of T1R1+3 response to the tastant by purine nucleotides” value on mouse T1R1+3 was “greatly potentiated”.

Values taken from patent publication US8470970B2, “Mammalian sweet and amino acid heterodimeric taste receptors comprising T1R3 and T1R1” (The Regents of the University of California, priority 2001, dated 2013).
